Source: patent publication US10300058B2, “Tyrosine kinase inhibitor and uses thereof” (Xuanzhu Pharma Co., Ltd., priority 2014, dated 2019)

System: H1975 human non-small cell lung cancer xenograft
Assay: Pharmacodynamics in vivo, H1975 xenograft tumor-bearing nude mice
Set-up: species or system BALB/c nude mouse
Details: PO; for RTV (relative tumor volume) / TV (tumor volume) / Body weight After administration / Body weight Before administration: mean ± standard error
Excerpt: Genus: Rodent, Line: BALB/c nude, age: 6-8 weeks, gender: female, body weight: 18-22 g. Provider of experimental animals: Beijing Ankaiyibo Biological Technology Co. Ltd., Production license No. SCXK(Jing) 2012-0009. Quality Certificate No. 11402400000256 […] The tumor cells in logarithmic growth phase were used in tumor inoculation in vivo. […] When the tumor grew into a volume of about 100 mm^3, the animals were grouped and administered, 8 mice per group. […] Test compound solutions were prepared immediately before administration every day. [table] Vernier caliper was used to measure the volume of tumor twice a week. The long diameter and short diameter of tumor were measured. The volume was calculated by the formula: volume=0.5×long diameter×short diameter^2. According to the measurement results, relative tumor volume (RTV) and relative tumor volume increasing rate (T/C) were calculated. RTV=Vt/V0, wherein Vt is the average value of tumor volume on day t after grouping and administration, V0 is the average value of tumor volume at the day when grouping. T/C=TRTV/CRTV×100%, wherein TRTV is the RTV in the treatment group, and CRTV is the RTV in the solvent control group. […] One-Way ANOVA test was carried out by SPSS17.0 statistic software. Tumor volume was analysed in statistics among groups. P<0.05 is indicative of significant difference.

[1] = Table 17, 100 mg/kg, 19 days after inoculation
[2] = Table 18, 10 mg/kg, QD × 18, 23 days after inoculation
[3] = Table 18, 30 mg/kg, QD × 18, 23 days after inoculation

For C=CC(=O)Nc1cccc(Nc2nc(Nc3ccc(N4CCC(N5CCOCC5)CC4)cc3OC)ncc2C(F)(F)F)c1 [Compound 28, N-(3-((2-((2-methoxy-4-(4-morpholinopiperidin-1-yl)phenyl)amino)-5-(trifluoromethyl)pyrimidin-4-yl)amino)phenyl)acrylamide], the “T/C (relative tumor volume increasing rate)” value (Table 17, 100 mg/kg) was 4.7%, the “TGI (tumor growth-inhibiting rate)” value (Table 17, 100 mg/kg) was 95.3% and the “RTV (relative tumor volume)” value [1] was 46 ± 6%. For the same molecule, the “TV (tumor volume)” value [1] was 53 ± 7 mm^3, the “Body weight After administration” value (Table 17, 100 mg/kg) was 21.5 ± 0.3 g and the “Body weight Before administration” value (Table 17, 100 mg/kg) was 20.8 ± 0.4 g.

For C=CC(=O)Nc1cccc(Nc2nc(Nc3ccc(C4CCN(C(C)=O)CC4)cc3OC)ncc2C(F)(F)F)c1 [Compound 2, N-(3-((2-((4-(1-acetylpiperidin-4-yl)-2-methoxyphenyl)amino)-5-(trifluoromethyl)pyrimidin-4-yl)amino)phenyl)acrylamide], the “T/C (relative tumor volume increasing rate)” value (Table 18, 10 mg/kg, QD × 18) was 56.1%, the “TGI (tumor growth-inhibiting rate)” value (Table 18, 10 mg/kg, QD × 18) was 43.9% and the “RTV (relative tumor volume)” value [2] was 630 ± 105%. The “TV (tumor volume)” value [2] was 588 ± 81 mm^3, the “Body weight After administration” value (Table 18, 10 mg/kg, QD × 18) was 22.6 ± 0.3 g and the “Body weight Before administration” value (Table 18, 10 mg/kg, QD × 18) was 21.1 ± 0.4 g. For the same molecule, the “T/C (relative tumor volume increasing rate)” value (Table 18, 30 mg/kg, QD × 18) was 45.7%, the “TGI (tumor growth-inhibiting rate)” value (Table 18, 30 mg/kg, QD × 18) was 54.3% and the “RTV (relative tumor volume)” value [3] was 513 ± 54%. For the same molecule, the “TV (tumor volume)” value [3] was 489 ± 49 mm^3, the “Body weight After administration” value (Table 18, 30 mg/kg, QD × 18) was 22.6 ± 0.5 g and the “Body weight Before administration” value (Table 18, 30 mg/kg, QD × 18) was 21.6 ± 0.4 g.
